Structures are written as SMILES. Read-outs that look alike come from different tables or passages of the source.

Experiment [1] deals with intraerythrocytic P. falciparum. Particulars: cited from earlier work.
For experiment [2] the test system is unchanged. The experiment can be described thus: In vitro parasite proliferation assay (SYBR Safe-based fluorescence). It counts as cell-based, Plasmodium falciparum (3D7 strain). Particulars: Plasmodium falciparum; intraerythrocytic stage, RPMI-1640 containing 1 µM pantothenate, 96 h; mean ± SEM of three experiments; read-out: IC50 (µM) against Pf at 1 µM Pan. The procedure:
Culturing of intraerythrocytic stage P. falciparum parasites (3D7 strain) was carried out using a method adapted from Trager and Jensen ([97]) and Allen and Kirk ([98]). Parasites were maintained within human, male or female, erythrocytes (typically Group O+, Rh+, 4% hematocrit) in RPMI-1640 medium (Thermo Fisher Scientific, catalogue number 72400120) supplemented with 25 mM HEPES, 11 mM glucose, 200 μM hypoxanthine, 24 μg/mL gentamicin and 6 g/L Albumax II on a horizontally rotating shaking incubator (New Brunswick Innova 42/[…]) at 37°C under an atmosphere of 96% nitrogen, 3% carbon dioxide, and 1% oxygen. To evaluate the effect of each compound on the in vitro proliferation of P. falciparum parasites, a SYBR Safe-based fluorescence assay was used as previously described ([32]). All pantothenamide-mimics tested were initially dissolved to a concentration of 200 mM in DMSO. The final DMSO concentration in the assay never exceeded 0.1% (vol/vol). Assays were performed using the same medium used to culture the parasites. […] Assays were set up with synchronous ring-stage P. falciparum-infected erythrocytes in 96-well microtiter plates. Parasites were synchronized using 5% (wt/vol) sorbitol ([100]). […] P. falciparum-infected erythrocytes incubated in the presence of 0.5 μM chloroquine were used as a non-proliferation control, and those incubated in the absence of compounds and chloroquine served as a 100% parasite proliferation control. To minimize “edge effects” ([101], [102]), the outermost rows and columns of the microtiter plates were not used in the proliferation assays and were filled with 200 μL of medium. The plates were then incubated at 37°C for 96 h under a low-oxygen atmosphere. At the end of the incubation, plates were frozen at -80°C to lyse the cells. […] The fluorescence in the non-proliferation control wells was subtracted from the fluorescence readings in the other wells prior to further analysis. Parasite proliferation, calculated as a percentage of the fluorescence measured in the test wells relative to the fluorescence measured in the 100% parasite proliferation control wells, was then plotted against the logarithm of the compound concentration. […] IC50 values (determined from the sigmoidal curves) were averaged from three independent experiments.

Experiment [3] relates to human hepatoblastoma cells (HepG2). Description: In vitro HepG2 proliferation assay (Incucyte confluency). It counts as cell-based. Particulars: 10 µM. As for the experimental part: (§1) HFF cells were maintained in vitro in DMEM supplemented with 10% (vol/vol) newborn calf serum, 50 units/mL penicillin, 50 µg/mL streptomycin, 10 µg/mL gentamicin, 0.2 mM L-glutamine, and 0.25 µg/mL amphotericin B, as previously described ([99]). HepG2 cells were maintained in RPMI-1640 medium (Thermo Fisher Scientific, catalogue number 72400120) supplemented with 10% (vol/vol) fetal bovine serum, 50 units/mL penicillin, and 50 µg/mL streptomycin.
In vitro HepG2 proliferation assays were performed similarly to the HFF proliferation assays with modifications. Confluent HepG2 cells were harvested by treatment with 1 × trypsin–EDTA and diluted in RPMI-1640 supplemented with 10% (vol/vol) fetal bovine serum. Assays were set up in 96-well microtiter plates with 20,000 cells per well. Puromycin (10 µM) was used as a non-proliferation control, and 0.1% (vol/vol) DMSO served as a 100% proliferation control. The plates were incubated at 37°C in a CO2 incubator for 72 h, and the Incucyte Live-Cell Analysis System (Essen BioScience) was used to capture cellular changes and assess cell growth in each well over time as described above for the HFF proliferation assays. The bottom of the curve was constrained to 0 when fitting for HepG2 proliferation assays using GraphPad Prism.

The next experiment relates to PfPanK. On the set-up: method as in PMID 29614109, PMID 11278793, PMID 24333332. The settings on record: mean ± SEM; read-out: Km for pantothenate of PfPanK in parasite lysates; cited from earlier work.
The target of a further experiment is T1, HsPanK3 (Homo sapiens, UniProt Q9H999).
T1 sequence (Q9H999 12-368): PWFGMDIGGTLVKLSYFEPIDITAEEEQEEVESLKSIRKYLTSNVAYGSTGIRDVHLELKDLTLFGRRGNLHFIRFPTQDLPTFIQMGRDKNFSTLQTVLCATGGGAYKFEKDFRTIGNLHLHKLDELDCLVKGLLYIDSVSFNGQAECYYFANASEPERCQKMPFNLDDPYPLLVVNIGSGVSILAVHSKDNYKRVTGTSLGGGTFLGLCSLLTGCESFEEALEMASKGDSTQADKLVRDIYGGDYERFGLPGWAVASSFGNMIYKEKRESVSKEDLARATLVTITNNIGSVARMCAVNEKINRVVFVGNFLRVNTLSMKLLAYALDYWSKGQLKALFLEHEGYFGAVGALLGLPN
Particulars: read-out: Km for pantothenate of HsPanK3, previous reports; cited from earlier work.

The subject of experiment [4] is human foreskin fibroblasts (HFF). Description: In vitro HFF proliferation assay (Incucyte confluency). Particulars: 10 µM. It counts as cell-based. The procedure: as §1
In vitro HFF proliferation assays were performed as previously described by Howieson et al. ([32]), with modifications. Confluent HFF cells (in a 75 cm^2 flask) were harvested by treatment with 1 × trypsin–EDTA (0.25% [wt/vol] trypsin +0.2 g/L EDTA) and diluted in 21 mL of DMEM supplemented with 10% [vol/vol] newborn calf serum ([32]). Assays were set up in 96-well microtiter plates in a similar way to that described for the antiplasmodial activity assay. Cycloheximide (10 µM) was used as a non-proliferation control, and 0.1% (vol/vol) DMSO served as a 100% proliferation control. The plates were incubated at 37°C in a CO2 incubator for 96 h, and the Incucyte Live-Cell Analysis System (Essen BioScience) was used to capture cellular changes and assess cell growth in each well over time. Each well was scanned to capture bright field images, and confluency was assessed at the end of the 96 h incubation, which was then used to evaluate the effect of each compound on the proliferation of HFF cells by comparing it to the 100% proliferation control. The bottom of the curve was constrained to 0 when fitting for HFF proliferation assays using GraphPad Prism.

Where [5] appears, read: in the presence of pantetheinases, read-out: IC50 against intraerythrocytic P. falciparum.

As a reminder, the IC50 is the concentration that gives 50% inhibition. Take `CCCCCCn1cc(CNC(=O)[C@H](O)C(C)(C)CO)nn1` [ii]: in experiment [1] (setting [5]), the IC50 is 0.055 ± 0.005 µM. For the compound `CCCCCCc1nc(CNC(=O)[C@H](O)C(C)(C)CO)cs1` [Compound 2b], the IC50 in experiment [2] was 5.2 ± 0.6 µM. For the compound `CC(C)(CO)[C@@H](O)C(=O)NCc1csc(-c2ccc(Cl)cc2)n1` [Compound 2f], the IC50 in experiment [2] amounted to 3.1 ± 0.3 µM. As for `CC(C)(CO)[C@@H](O)C(=O)NCc1cnc(-c2ccc(Cl)cc2)s1` [Compound 3h], the IC50 in experiment [2] is 44 ± 4 µM. Turning to `CCCCCCc1cc(CNC(=O)[C@H](O)C(C)(C)CO)no1` [iv], in experiment [1] (setting [5]), the IC50 was 0.16 ± 0.01 µM. As for `CC(C)(CO)[C@@H](O)C(=O)NCc1cnc(-c2cccc(C(F)(F)F)c2)s1` [Compound 3j], the IC50 in experiment [2] is 11 ± 1 µM. Consider `COc1ccc(C[C@H](N)C(=O)N[C@H]2[C@@H](O)[C@H](n3cnc4c(N(C)C)ncnc43)O[C@@H]2CO)cc1` [puromycin, reference compound], for which the “Effect on proliferation of HepG2 cells (positive control)” value in experiment [3] is recorded as “completely inhibited”. For `CC(C)(CO)[C@@H](O)C(=O)NCc1cnc(-c2ccc(C(F)(F)F)cc2)s1` [Compound 3i], in experiment [2], the IC50 was 46 ± 6 µM.

In the case of `CCCCCn1cc(CNC(=O)[C@H](O)C(C)(C)CO)nn1` [compound i], the IC50 in experiment [1] (setting [5]) is 0.056 ± 0.005 µM.

Turning to `CC(C)CCc1csc(CNC(=O)[C@H](O)C(C)(C)CO)n1` [Compound 1b], the IC50 in experiment [2] worked out at 2.9 ± 0.2 µM.

Turning to `CCCCc1ncc(CNC(=O)[C@H](O)C(C)(C)CO)s1` [Compound 3a], the IC50 in experiment [2] worked out at 11 ± 1 µM. With `CCCCCc1nnc(CNC(=O)[C@H](O)C(C)(C)CO)s1` [compound v], the IC50 in experiment [1] (setting [5]) is 0.96 ± 0.05 µM. As to `CCCCCCc1csc(CNC(=O)[C@H](O)C(C)(C)CO)n1` [Compound 1d], the IC50 in experiment [2] was determined as 4.3 ± 0.4 µM. Usually Km stands for the substrate concentration at which the rate is half of its maximum. On to `CC(C)(CO)[C@@H](O)C(=O)NCCC(=O)O` [D-Pantothenate], for which the Km with PfPanK was 0.27 ± 0.095 µM; at HsPanK3, 17 ± 1 µM. Regarding `CC(C)(CO)[C@@H](O)C(=O)NCc1cnc(-c2ccc(F)cc2)s1` [Compound 3g], the IC50 in experiment [2] was 14 ± 2 µM. Turning to `CC(C)(CO)[C@@H](O)C(=O)NCc1cnc(CCc2ccccc2)s1` [Compound 3e], in experiment [2], the IC50 was 44 ± 1 µM.

`CCCCCc1ncc(CNC(=O)[C@H](O)C(C)(C)CO)s1` [Compound 3b]: the IC50 in experiment [2] came out at 12 ± 1 µM. On to `C[C@@H]1C[C@@H]([C@H](O)CC2CC(=O)NC(=O)C2)C(=O)[C@@H](C)C1` [Cycloheximide, reference compound], for which the “Effect on proliferation of HFF cells (positive control)” value in experiment [4] is given as “completely inhibited the proliferation”.

On to `CC(C)(CO)[C@@H](O)C(=O)NCc1csc(-c2ccc(C(F)(F)F)cc2)n1` [Compound 2g], for which, in experiment [2], the IC50 worked out at 57 ± 2 µM. Still for that read-out and setting: to `CC(C)(CO)[C@@H](O)C(=O)NCc1csc(-c2cccc(C(F)(F)F)c2)n1` [Compound 2h] belongs 21 ± 1 µM; to `CC(C)(CO)[C@@H](O)C(=O)NCc1csc(Cc2ccc3ccccc3c2)n1` [Compound 2d], 6.5 ± 0.1 µM; to `CC(C)(CO)[C@@H](O)C(=O)NCc1cnc(Cc2ccccc2)s1` [Compound 3d], 16 ± 1 µM.

For the compound `CCCCCCc1ncc(CNC(=O)[C@H](O)C(C)(C)CO)s1` [Compound 3c], the IC50 in experiment [2] is 35 ± 2 µM. Regarding `CCCCCNC(=O)CCNC(=O)[C@H](O)C(C)(C)CO` [Compound N5-Pan], the IC50 in experiment [1] (absence of pantetheinases, read-out: IC50 in the absence of pantetheinases) was 2 ± 0.5 µM; in experiment [1] (presence of pantetheinases, read-out: IC50 in the presence of pantetheinases) it was 124 ± 15 µM. With `CCCCCc1cc(CNC(=O)[C@H](O)C(C)(C)CO)no1` [iii], the IC50 in experiment [1] (setting [5]) is 0.072 ± 0.003 µM. `CCCCCc1nc(CNC(=O)[C@H](O)C(C)(C)CO)cs1` [Compound 2a]: the IC50 in experiment [2] was 5.6 ± 0.2 µM.

These data come from publication PMC12406685, “Thiazole substitution of a labile amide bond—a new option toward antiplasmodial pantothenamide-mimics” (Antimicrobial Agents and Chemotherapy, 2025).
